{"source": "ChEMBL document CHEMBL5247657", "about": "(J Med Chem, 2023)", "key": {"[1]": {"assay": "Half-life in Sprague-Dawley rat at 1 mg/kg, iv measured upto 24 hrs by LC-MS/MS analysis", "format": "ADME, organism-based", "details": "in vivo"}, "[2]": {"assay": "Volume of distribution at steady state in Sprague-Dawley rat at 1 mg/kg, iv measured upto 24 hrs by LC-MS/MS analysis", "format": "ADME, organism-based", "details": "in vivo, read-out: Vdss"}, "[3]": {"assay": "Half-life in Beagle dog at 1 mg/kg, iv measured upto 24 hrs by LC-MS/MS analysis", "format": "ADME, organism-based, Canis lupus familiaris", "details": "in vivo"}, "[4]": {"assay": "Volume of distribution at steady state in Beagle dog at 1 mg/kg, iv measured upto 24 hrs by LC-MS/MS analysis", "format": "ADME, organism-based, Canis lupus familiaris", "details": "in vivo, read-out: Vdss"}, "[5]": {"assay": "Tmax in Sprague-Dawley rat at 5 mg/kg, po measured upto 24 hrs by LC-MS/MS analysis", "format": "ADME, organism-based", "details": "in vivo"}, "[6]": {"assay": "Tmax in Beagle dog at […], po measured upto 24 hrs by LC-MS/MS analysis", "format": "ADME, organism-based, Canis lupus familiaris", "details": "in vivo, dose 2.5 mg/kg"}, "in vivo [7]": {"assay": "in vivo", "details": "Beagle, dog, iv, 1 mg/kg"}, "in vivo [8]": {"assay": "in vivo", "details": "Sprague-Dawley, rat, po, 5 mg/kg"}, "in vivo [9]": {"assay": "in vivo", "details": "Beagle, dog, po"}, "in vivo [10]": {"assay": "in vivo", "details": "Beagle, dog, po", "remark": "listed apart in the source"}, "in vivo [11]": {"assay": "in vivo", "details": "Beagle, dog, po", "remark": "listed apart in the source"}}}
{"compound": "C=CC(=O)N1CCC([C@@H]2CCNc3c(C(N)=O)c(-c4cc(OC)c(C)c(OC)c4)nn32)CC1", "values": [{"measurement": "half-life", "setting": "[1]", "value": 36, "unit": "min"}, {"measurement": "Vd", "setting": "[2]", "value": 0.9, "unit": "L/kg"}, {"measurement": "half-life", "setting": "[3]", "value": 150, "unit": "min"}, {"measurement": "Vd", "setting": "[4]", "value": 0.74, "unit": "L/kg"}, {"measurement": "Tmax", "setting": "[5]", "value": 15, "unit": "min"}, {"measurement": "Tmax at 24 h", "setting": "[6]", "value": 25.2, "unit": "min"}, {"measurement": "clearance at 24 h", "setting": "in vivo [7]", "value": 6.89, "unit": "mL/min/kg"}, {"measurement": "AUC(0-inf) at 24 h", "setting": "in vivo [8]", "value": 964, "unit": "ng·h/mL"}, {"measurement": "Cmax at 24 h", "setting": "in vivo [9]", "value": 1250, "unit": "ng/mL"}, {"measurement": "AUC(0-inf) at 24 h", "setting": "in vivo [10]", "value": 2640, "unit": "ng·h/mL"}, {"measurement": "bioavailability at 24 h", "setting": "in vivo [11]", "value": 43, "unit": "%"}]}
